Measured values reported in patent publication US20190038714A1, “ANTI-INFLAMMATORY COMPOSITION COMPRISING CLAVASPIRIN PEPTIDE ANALOGUE AS EFFECTIVE INGREDIENT” (INDUSTRY-ACADEMIC COOPERATION FOUNDATION, CHOSUN UNIVERSITY, priority 2015, published 2019).
Ends that are not written are not given here.

How the values were obtained:
S. aureus MRSA 5156 = details: 24 hours at 37° C.
S. aureus MRSA 1635 = details: 24 hours at 37° C.
[1] = Cytotoxicity in normal cell line (MTT); format: cell-based, human; details: human, HaCaT cells (keratinocyte cell line), HaCaT, 24 hours, MTT, read-out: Cell survival ability %; for viability at 24 h, 25 µM: peptide 25 μM; for viability at 24 h, 50 µM: peptide 50 μM; for viability at 24 h, 100 µM: peptide 100 μM; for viability at 24 h, 200 µM: peptide 200 μM; for viability at 24 h, 400 µM: peptide 400 μM
Protocol: (§1) To determine the cytotoxicity of the peptide produced by the method of Example 1 in normal cell line, toxicity was measured by using human keratinocyte forming cell line (HaCaT cell line, Dr. NE. Fusenig, Heidelberg, Germany).
(§2) Specifically, HaCaT cells which have been cultured in DMEM medium containing 10% FBS (Fetal Bovine Serum) were aliquoted in a 96-well plate (3×10^3 cells/well). […] After the culture, a reaction solution containing 5 mg/ml MTT (Thiazolyl Blue Tetrazolium Bromide) dissolved in physiological saline (PBS) was added in an amount of 20 μl to each well and allowed to react for 4 hours. After that, the supernatant was removed, and, by dissolving the formed MTT crystals by adding 200 μl of DMSO, the absorbance at 560 nm was measured to determine the cell survival ability.

skin of a hairless mouse = assay: Scanning electron microscopy of hairless mouse skin with induced dermatitis; format: in vivo; details: 200 μg/ml
Protocol: Skin of a 6-week old hairless mouse was treated with 100 μl of S. aureus MRSA 0027 (1×10^8 cells/ml) to induce inflammation. Thirty minutes later, the skin was further treated with CSP-4 peptide at 100 μg/ml or 200 μg/ml. From each of a mouse having induced inflammation further treated with the peptide, a mouse treated only with the peptide, and a mouse having induced inflammation, tissues were collected and washed using physiological saline (PBS). Then, the tissues were fixed for 24 hours at room temperature by using 4% PFA (paraformaldehyde). […] According to H&E staining and immunohistochemical method, a change in tissues and onset of an anti-inflammatory cytokine or TLR2 receptor was determined. […] Remaining liquids were removed by TBST buffer such that the tissues are not detached, and a secondary antibody linked with green fluorescence (Got anti-mouse IgG (HRP) LF-SA5001-conjugated) was allowed to bind thereto. Next, each tissue was determined by using a fluorescent microscope (I×71, Olympus, Japan).
From the mouse tissues which have been treated according to the method of above Example 8, a paraffin block was prepared. […] Next, a change in the tissues was determined by using scanning electron microscopy (SEM).

HaCaT cell line = assay: Cytotoxicity in normal cell line (MTT); format: cell-based, human; details: HaCaT cell line
Protocol: as §1, §2

Row | Substance | MIC (S. aureus MRSA 5156) | MIC (S. aureus MRSA 1635) | viability at 24 h, 25 µM [1] | viability at 24 h, 50 µM [1] | viability at 24 h, 100 µM [1] | viability at 24 h, 200 µM [1] | viability at 24 h, 400 µM [1] | change in mouse skin (SEM), treated only with the peptide (skin of a hairless mouse) | cytotoxicity in human keratinocyte forming cell line (HaCaT cell line)
1 | FLRFIGSVIHGIGHLVHHIGVAL-NH2 [Clavaspirin] | 8 µM | 16 µM | 15% | 3% | 1% | 1% | 0% |  | 
2 | FLRFIGSVKHGKGHLVHHIGVAL-NH2 [CSP-4] | 8 µM | 8 µM | 100% | 100% | 100% | 100% | 88% | no change in mouse skin is induced | almost no cytotoxicity
